Results taken from article PMC6269693, “Synthesis and Biological Evaluation of RGD-Conjugated MEK1/2 Kinase Inhibitors for Integrin-Targeted Cancer Therapy” (Molecules, 2013).
Where two headings read alike, the source gives them in different places.

Assays:
[1] = system: melanoma A375 cells; assay: cells; settings: Homo sapiens, A-375, 72 h
Experimental: (§2) A375, U87, A549 cell line, which were obtained from the National Platform of Experimental Cell Resources for Sci-Tech (Beijing, China), were cultured in Dulbecco’s modified Eagle’s medium (DMEM; Hyclone, Logan, UT, USA), supplemented with 10% heat-inactivated FBS (Hyclone), 100 U/mL penicillin, and 100 μg/mL streptomycin (Wako Pure Chemical Industries, Ltd., Osaka, Japan).
(§3) The cytotoxicity of the RGD-MKE1 conjugates on A375 melanoma cells, ERK signal pathway hyper-activated cell line, was studied in vitro by using an SRB assay. A375 cells (4.5 × 10^3) or U87 cells (5.0 × 10^3) were plated in each well of a 96-well tissue culture plate. Medium supplemented with 10% FBS was added, and cells were allowed to adhere for 24h. […] Then the medium was removed from the 96-well plate, and 10% ice-cold trichloroacetic acid (TCA, 200 μL) was added. The plate was kept at 4 for one hour after which was washed five times with deionized water, then stained with Sulforhodamine B (SRB, 100 μL, Sigma, St. Louis, MO, USA) before air drying. After washing with 1% acetic acid, the bound dye was solubilized with Tris base A (Sigma) and 100 μL of each sample were transferred into a 96-well plate, and then absorbance was read in a 96-well plate reader at 540 nm.Inhibitory ratio (%) = [(ODcontrol − ODtreated)/(ODcontrol)] × 100%.

[2] = biological target: inactive MEK1 kinase (Homo sapiens, UniProt Q02750); assay: HTRF phosphor-MEK1 assay (BRAF-MEK1 assay); assay type: biochemical; settings: for BRAF-MEK1 assay (%) 0.01μM / BRAF-MEK1 assay (%) 0.1 μM / BRAF-MEK1 assay (%) 1 μM: inhibition of phosphorylation of inactive MEK1, mean of three ± SD
Experimental: (§1) Phosphorylated MEK1 was determined quantitatively by formation of a complex with specific Eu-labeled anti-phospho p44/42 MAPK (Thr202/Tyr204) antibody and anti-GST-XL665.After 3 h, time-resolved fluorescence was read using a FlexStation 3 plate reader (Molecular Devices, Sunnyvale, CA, USA). […] The curve-fitting software GraphPad Prism 4.0 was used to generate the curves and determine the IC50 values. […] The calculation method of HTRF ratio was the same with that in HTRF phosphor-MEK1 assay.

[3] = biological target: T1, active MEK1 kinase (Homo sapiens, UniProt Q02750); assay: HTRF phosphor-ERK2 assay (MEK1-ERK2 assay); assay type: biochemical; settings: inhibition of active MEK1 phosphorylating inactive ERK2, mean of three ± SD
T1 construct: purchased Carna Biosciences
Experimental: as §1

[4] = system: melanoma A375 cells; settings: for IC50: 72 h
Experimental: as §2, §3

[5] = system: p-ERK1/2 in melanoma A375 cells; assay: Western blotting of p-ERK1/2 in A375 cell lysates; assay type: cell-based; settings: 10 μM, 2 h
Experimental: To evaluate the expression levels of ERK singal pathway after treated with conjugates, A375 cells were treated with compounds for 2 h respectively. Confluent cells were washed with ice-cold phosphate-buffered saline (PBS), and treated with lysis buffer (Beyotime Institute of Biotechnology, Suzhou, China) on ice for 1 h. Then the lysates were collected by scraping from the plates and then centrifuged at 13,000 rpm at 4 °C for 15 min. The protein concentration was quantitated using a Pierce BCA Protein Assay Kit (Thermo Scientific, Rockford, IL, USA) ona FlexStation 3 Benchtop Multi-Mode Microplate Reader at 562 nm (Molecular Devices). An equal amount of proteins (10 μg per lane) for each sample were analyzed by SDS-PAGE on a 10% gel. After electro-blotting to PVDF membrane (Millipore, Billerica, MA, USA) at 400 mA for 1 h, membranes were blocked with 5% nonfat dry milk for 1 h at room temperature. Membrane were washed with 0.1% PBST three times and then incubated with primary antibodies overnight at 4 °C. Antibodies against pERK and ERK (Cell Signaling Technology, Inc., Danvers, MA, USA) were utilized as the primary antibodies. […] Finally, protein products were analyzedby Image Lab^TM software(ChemiDoc^TM XRS System, BIO-RAD, Hercules, CA, USA) with. […]

[6] = system: U87 glioblastoma cells; assay: In vitro anti-proliferation assay by the SRB method, U87; assay type: cell-based, human
Experimental: as §2, §3

inactive MEK1 kinase, sequence (Q02750 whole entry): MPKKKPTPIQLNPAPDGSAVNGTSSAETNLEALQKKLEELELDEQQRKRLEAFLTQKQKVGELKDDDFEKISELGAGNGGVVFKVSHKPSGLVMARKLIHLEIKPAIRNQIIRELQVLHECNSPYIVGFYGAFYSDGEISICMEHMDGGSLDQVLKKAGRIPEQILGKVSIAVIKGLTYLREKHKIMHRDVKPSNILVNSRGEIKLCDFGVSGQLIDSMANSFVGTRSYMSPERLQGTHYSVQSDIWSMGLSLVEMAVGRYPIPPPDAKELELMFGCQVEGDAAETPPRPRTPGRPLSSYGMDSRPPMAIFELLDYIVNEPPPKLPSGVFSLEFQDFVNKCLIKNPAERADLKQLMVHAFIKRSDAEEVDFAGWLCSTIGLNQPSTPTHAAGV
T1 sequence (Q02750 whole entry): as above

| BRAF-MEK1 assay (%) 0.01μM [2] [%] | BRAF-MEK1 assay (%) 0.1 μM [2] [%] | BRAF-MEK1 assay (%) 1 μM [2] [%] | MEK1-ERK2 assay (%) 1 μM [3] [%] | MEK1-ERK2 assay (%) 10 μM [3] [%] | Compound | further results |
| --- | --- | --- | --- | --- | --- | --- |
|  |  |  |  |  | NCCOCCONC(=O)c1ccc(F)c(F)c1Nc1ccc(I)cc1F [Compound 7e, N-(2-(2-aminoethoxy)ethoxy)-3,4-difluoro-2-((2-fluoro-4-iodophenyl)amino)benzamide] | melting point: 197.5 to 198.5 °C |
| 12.5 ± 3.2 | 39.6 ± 9.3 | 57.5 ± 1.7 | 29.1 ± 12.0 | 83.4 ± 1.2 | O=C(O)CCC(=O)NCCCONC(=O)c1ccc(F)c(F)c1Nc1ccc(I)cc1F [Compound 8b, 4-((3-((3,4-Difluoro-2-((2-fluoro-4-iodophenyl)amino)benzamido)oxy)propyl)amino)-4-oxobutanoic acid] | IC50 ([1]; read-out: A375 cell IC50): 14200 nM |
|  |  |  |  |  | O=C(O)CCC(=O)NCCCCONC(=O)c1ccc(F)c(F)c1Nc1ccc(I)cc1F [Compound 8c, 4-((4-((3,4-Difluoro-2-((2-fluoro-4-iodophenyl)amino)benzamido)oxy)butyl)amino)-4-oxobutanoic acid] | melting point: 120.9 to 121.9 °C |
| 0.3 ± 0.0 | 30.0 ± 4.7 | 74.2 ± 7.2 | 66.5 ± 7.7 | 88.4 ± 1.4 | N=C(N)NCCC[C@@H]1NC(=O)[C@H](CCCCNC(=O)CCC(=O)NCCONC(=O)c2ccc(F)c(F)c2Nc2ccc(I)cc2F)NC(=O)[C@@H](Cc2ccc(O)cc2)NC(=O)[C@H](CC(=O)O)NC(=O)CNC1=O [Compound 9a] | IC50 [4]: 4400 nM |
|  |  |  |  |  | O=C(O)CCC(=O)OC[C@H](O)CONC(=O)c1ccc(F)c(F)c1Nc1ccc(I)cc1F [Compound 11, (S)-4-(3-((3,4-difluoro-2-((2-fluoro-4-iodophenyl)amino)benzamido)oxy)-2-hydroxypropoxy)-4-oxobutanoic Acid] | IC50 ([1]; read-out: A375 proliferation assay IC50): 230 nM; fold loss of antitumor efficacy compared to 13 ([4]; A375 IC50 vs 13): ~10 fold |
|  |  |  |  |  | O=C(NOC[C@H](O)CO)c1ccc(F)c(F)c1Nc1ccc(I)cc1F [PD0325901, reference compound] | IC50 ([1]; read-out: A375 cell IC50): 0.45 nM; inhibition at 1 µM ([6]; Homo sapiens, U-87 MG, high concentrations (>1 µM), concentration-independent, 72 h, read-out: inhibitory activity in U87 cells): ~50% |
|  |  |  |  |  | c(RGDyK) [cRGD peptides, reference compound] | inhibition of the phosphorylation of ERK1/2 protein [5]: no inhibitory activity |

| Compound | BRAF-MEK1 assay (%) 0.01μM [2] [%] | BRAF-MEK1 assay (%) 0.1 μM [2] [%] | BRAF-MEK1 assay (%) 1 μM [2] [%] | MEK1-ERK2 assay (%) 1 μM [3] [%] | MEK1-ERK2 assay (%) 10 μM [3] [%] | further results |
| --- | --- | --- | --- | --- | --- | --- |
| N=C(N)NCCC[C@@H]1NC(=O)[C@H](CCCCNC(=O)CCC(=O)NCCCONC(=O)c2ccc(F)c(F)c2Nc2ccc(I)cc2F)NC(=O)[C@@H](Cc2ccc(O)cc2)NC(=O)[C@H](CC(=O)O)NC(=O)CNC1=O [Compound 9b] | 6.7 ± 8.5 | 58.5 ± 8.5 | 77.6 ± 7.5 | 69.9 ± 3.2 | 93.5 ± 2.2 | inhibition of the phosphorylation of ERK1/2 protein [5]: up to 90%; IC50 [2]: 47.9 nM; IC50 [4]: 2100 nM; U87 cell-growth inhibition ([6]; 10 µM, SRB method): 21.3% |
